The text below walks through data of patent publication US9487553B2, “Boranophosphate analogues of cyclic nucleotides” (BIOLOG LIFE SCIENCE INSTITUTE FORSCHUNGSLABOR UND …, priority 2011, dated 2016).

Data set [1] concerns the target T1, protein kinase G I α (Homo sapiens, UniProt Q13976).
T1 sequence (Q13976 1-671): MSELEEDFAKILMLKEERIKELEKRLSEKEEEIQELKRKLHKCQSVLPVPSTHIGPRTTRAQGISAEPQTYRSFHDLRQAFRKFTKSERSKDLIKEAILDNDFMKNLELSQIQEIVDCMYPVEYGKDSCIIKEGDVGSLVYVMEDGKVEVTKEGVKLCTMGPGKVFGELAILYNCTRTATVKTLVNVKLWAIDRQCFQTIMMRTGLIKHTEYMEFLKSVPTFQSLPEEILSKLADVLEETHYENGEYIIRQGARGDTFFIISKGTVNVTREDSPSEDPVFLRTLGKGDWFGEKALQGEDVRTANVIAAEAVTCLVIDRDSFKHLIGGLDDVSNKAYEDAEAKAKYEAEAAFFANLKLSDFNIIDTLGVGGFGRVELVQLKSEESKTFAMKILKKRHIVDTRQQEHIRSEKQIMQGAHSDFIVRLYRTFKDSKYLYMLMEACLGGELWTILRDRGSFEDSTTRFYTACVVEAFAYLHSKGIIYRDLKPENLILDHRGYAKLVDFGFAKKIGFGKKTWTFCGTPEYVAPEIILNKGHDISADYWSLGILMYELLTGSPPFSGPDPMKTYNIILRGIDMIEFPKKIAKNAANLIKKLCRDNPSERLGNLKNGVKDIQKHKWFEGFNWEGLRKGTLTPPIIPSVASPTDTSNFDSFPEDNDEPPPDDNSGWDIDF
Nature of the data set: Protein kinase G I alpha activation, phosphotransferyl assay. The format is biochemical. Particulars: 10 nM, 100 nM and 1 μM. From the text: Next, the activity profile of some cyclic boranophosphates disclosed in this invention has also been investigated on protein kinase G I α (FIGS. 8 and 9). Potential activatory potential towards the enzyme has been determined by a standard phosphotransferyl assay protocol according to Dostmann et al. (Dostmann, W. R.; Nickl, C.; Thiel, S.; Tsigelny, I.; Frank, R.; and Tegge, W. J., Pharmacol. Ther., 82, 373-387 (1999). FIG. 8 depicts the activity (μmol×min^−1×mg^−1) overview of six different cyclic boranophosphate analogues with protein kinase G type I at 10 nM, 100 nM and 1 μM. BLG-9108: […]; BLG-9110: Sp-8-Br-cAMPB; BLG-9111: Rp-8-Br-cAMPB; BLG-9112: Sp-8-Br-cGMPB; BLG-9113: Rp-8-Br-cGMPB; control: cyclic GMP.

Data set [2] in a line: Degradation Example 2: oxidation with hydrogen peroxide, monitored by HPLC. The format is physicochemical. On the procedure:
Thus, 0.05 μmol of the Rp-isomer of 8-(4-chlorophenylthio)adenosine-3′,5′-cyclic boranophosphate (Rp-8-pCPT-cAMPB, example 9), was treated stepwise with 5 μl portions of 30% aqueous hydrogen peroxide solution (Merck) every 30 min. The oxidation process was monitored by reversed phase HPLC (RP-18, 25 Vol.-% acetonitrile, 20 mM triethylammonium formate buffer, pH 6.1, 2 ml/min, UV 280 nm). As a control the corresponding cyclic nucleotide with phosphorothioate modification (Sp-8-pCPT-cAMPS, Biolog) was added. In summary, 15 μl peroxide, were applied.

A short description of data set [3]: Degradation Example 3: oxidation with hydrogen peroxide, monitored by HPLC. Type of data set: physicochemical. Particulars: after 90 min. at RT. On the procedure: Thus, 0.1 μmol of the Rp-isomer of 8-(4-chlorophenylthio)-2′-O-methyladenosine-3′,5′-cyclic boranophosphate (Rp-8-pCPT-2′-O-Me-cAMPB, example 44), dissolved in 300 μl of water, was treated stepwise with 2 μl portions of 30% aqueous hydrogen peroxide solution (Merck). The oxidation process was monitored again by reversed phase HPLC (RP-18, 30 Vol.-% acetonitrile, 20 mM triethylammonium formate buffer, pH 8.3, 2 ml/min, UV 282 nm). As a control, the corresponding cyclic nucleotide with phosphorothioate modification (Sp-8-pCPT-2′-O-Me-cAMPS, Biolog) was added. In summary, 20 μl peroxide, were applied.

A short description of data set [4]: Degradation Example 7: oxidation with hydrogen peroxide, monitored by HPLC. Type of data set: physicochemical. To be noted: for oxidation by peroxide: 5 portions of 30% H2O2; for HPLC Area %: hydrogen peroxide. How it is done:
The degradation experiment was monitored by HPLC (RP-18, 15 Vol.-% acetonitrile, 20 mM triethylammonium formate buffer, pH 6.5, 1 ml/min., UV 270 nm) and peak areas were recorded.

Data set [5] has as its target protein kinase A type I alpha holoenzyme (Homo sapiens, UniProt P10644). Kind of data set: Standard photometric (Cook) assay with protein kinase A type I alpha holoenzyme. The format is biochemical. To be noted: holoenzyme RIα. From the text: In a first experiment, the biological activity of the Rp- and Sp-isomer of 8-bromoadenosine-3′,5′-cyclic boranophosphate (examples 1 and 2) has been tested with the holoenzyme of protein kinase A type I alpha (FIGS. 3 and 4) using a standard photometric assay (Cook, P. F.; Neville, M. E., Jr.; Vrana, K. E.; Hartl, F. T. and Roskoski, R., Jr., Biochemistry 21, 5794-5799 (1982)).
As a control, two boranophosphate analogues with a 2′-O-methyl modification (Rp-2′-O-Me-cAMPB and Sp-2′-O-Me-cAMPB, examples 7 & 8) have been tested by the same type of assay with protein kinase A type I alpha as well.
FIG. 5 depicts the activity overview of four different cyclic boranophosphate analogues with protein kinase A type I alpha holoenzyme. 9108: Sp-2′-O-Me-cAMPB; 9109: Rp-2′-O-Me-cAMPB; 9110: Sp-8-Br-cAMPB; 9111: Rp-8-Br-cAMPB; controls: B 001: Rp-8-Br-cAMPS. Control: cAMP. “Cook Assay” with Holoenzyme RIα.

Data set [6] can be described thus: Degradation Example 1: oxidation with hydrogen peroxide, monitored by HPLC. Type of data set: physicochemical. Particulars: after further addition of 10 μl of 30% H2O2, two hours at RT. From the text:
In order to check out the stability of the boranophosphates described in this invention towards oxidising conditions in comparison to the corresponding phosphorothioates, 0.1 μmol of the sodium salts of each, Rp-8-bromoadenosine-3′,5′-cyclic boranophosphate (Rp-8-Br-cAMPB, example 1), Sp-8-bromoadenosine-3′,5′-cyclic boranophosphate (Sp-8-Br-cAMPB, example 2), Rp-8-bromoadenosine-3′,5′-cyclic phosphorothioate (Rp-8-Br-cAMPS, Biolog) and Sp-8-bromoadenosine-3′,5′-cyclic phosphorothioate (Sp-8-Br-cAMPS, Biolog) were dissolved in 100 μl of eluent and the mixture was analyzed by HPLC (RP-18, 11% acetonitrile, 20 mM triethylammonium formate buffer, pH 6.1, 1.5 ml/min, UV 258 nm). The following elution profile was recorded: Rp-8-Br-cAMPS (5:13 min.)<Sp-8-Br-cAMPS (7:23 min.)<Sp-8-Br-cAMPB (9:13 min.)<Rp-8-Br-cAMPB ([…].).
Subsequently, aqueous hydrogen peroxide (Merck) was added in small portions while the stability of the four compounds was permanently monitored over time.
10 μl of H2O2 (0.3%) as well as 10 μl of 3% H2O2 were added to no effect.

Data set [7] concerns the target T2, PDE IV (A4B) (Homo sapiens, UniProt P27815).
T2 construct: Houslay lab, Glasgow/Scotland (obtained from another laboratory)
Nature of the data set: Stability against PDE IV, HPLC. Particulars: human, Houslay lab), pH 7.2, read-out: half life of hydrolysis. The format is in vitro ADME. On the procedure: Next, stability of the disclosed boranophosphates against PDE IV (A4B, Houslay lab, Glasgow/Scotland) was tested in similar experiments as described above.

Data set [8] has as its system PDE 1 from bovine heart. Kind of data set: Resistance towards phosphodiesterase: incubation with PDE 1 from bovine heart, HPLC. To be noted: PDE 1, bovine heart. How it is done: For this purpose 0.1 μmol of Rp-8-bromoadenosine-3′,5′-cyclic boranophosphate (example 1) and Sp-8-bromoadenosine-3′,5′-cyclic boranophosphate […] dissolved in TRIS buffer pH 7.2 containing calcium chloride and calmodulin and incubated with PDE type I from bovine brain (Sigma-Aldrich) at 37° C. Activity of the enzyme was checked by hydrolysis of cyclic AMP. Stability was monitored by HPLC (RP-18, 11 Vol.-% propanol-2, 20 mM TEAF buffer, pH 6.8, 1 ml/min., UV 264 nm). […] This strategy of testing PDE performance was applied accordingly in degradation examples 10 and 11.
Thus, Rp-8-Br-cAMPB (example 1) and Sp-8-Br-cAMPS (Biolog, Bremen/Germany) were incubated with PDE 1 from bovine heart (Sigma-Aldrich) and monitored by HPLC as described above.
Rp-2′-O-Me-cAMPB (example 7) and Sp-2′-O-Me-cAMPS (Biolog, Bremen/Germany).

One may read the half-life as how long it takes for the measured level to halve.

Several values for one entry are separate records, joined by “and”; a condition that tells them apart may be missing. Equal values may be shown once.

T2 sequence (P27815 whole entry): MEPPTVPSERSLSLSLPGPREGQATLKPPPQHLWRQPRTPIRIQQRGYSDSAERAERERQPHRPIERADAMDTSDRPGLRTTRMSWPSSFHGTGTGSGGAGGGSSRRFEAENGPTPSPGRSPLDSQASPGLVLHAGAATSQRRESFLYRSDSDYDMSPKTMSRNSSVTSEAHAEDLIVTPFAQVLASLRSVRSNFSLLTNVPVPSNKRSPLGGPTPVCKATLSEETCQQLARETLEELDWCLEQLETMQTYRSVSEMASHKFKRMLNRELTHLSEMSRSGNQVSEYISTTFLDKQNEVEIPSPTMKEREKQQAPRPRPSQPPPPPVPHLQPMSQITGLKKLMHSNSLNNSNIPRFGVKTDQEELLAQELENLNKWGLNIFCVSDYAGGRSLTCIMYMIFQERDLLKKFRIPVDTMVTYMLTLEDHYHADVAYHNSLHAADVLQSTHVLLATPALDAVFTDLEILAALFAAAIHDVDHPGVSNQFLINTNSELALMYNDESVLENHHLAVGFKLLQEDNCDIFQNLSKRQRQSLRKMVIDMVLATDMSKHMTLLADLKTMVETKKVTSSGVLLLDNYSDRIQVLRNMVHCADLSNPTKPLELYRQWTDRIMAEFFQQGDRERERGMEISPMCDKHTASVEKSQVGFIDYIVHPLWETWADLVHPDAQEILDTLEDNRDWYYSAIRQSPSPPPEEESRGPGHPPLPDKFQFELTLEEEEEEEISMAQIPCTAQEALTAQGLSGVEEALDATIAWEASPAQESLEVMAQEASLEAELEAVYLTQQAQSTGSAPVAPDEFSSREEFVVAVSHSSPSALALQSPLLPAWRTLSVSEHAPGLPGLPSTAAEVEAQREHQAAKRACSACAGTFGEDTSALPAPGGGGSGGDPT
Chain of protein kinase A type I alpha holoenzyme (P10644 whole entry): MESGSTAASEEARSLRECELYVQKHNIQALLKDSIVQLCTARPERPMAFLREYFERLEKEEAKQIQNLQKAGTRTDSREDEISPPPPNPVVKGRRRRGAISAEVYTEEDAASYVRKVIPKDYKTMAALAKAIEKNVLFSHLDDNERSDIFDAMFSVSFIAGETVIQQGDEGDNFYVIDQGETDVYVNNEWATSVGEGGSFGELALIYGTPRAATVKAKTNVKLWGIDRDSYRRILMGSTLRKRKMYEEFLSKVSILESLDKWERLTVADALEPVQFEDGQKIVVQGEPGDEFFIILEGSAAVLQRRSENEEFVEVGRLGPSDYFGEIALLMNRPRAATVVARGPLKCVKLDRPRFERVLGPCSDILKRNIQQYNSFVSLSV

On to “8-Bromoguanosine-3′,5′-cyclic boranophosphate, Rp-isomer [Rp-8-Br-cGMPB]”, for which, in data set [1], the “activation of protein kinase G” value is reported as “activated the kinase”.

Regarding `Nc1ncnc2c1nc(Sc1ccc(Cl)cc1)n2[C@@H]1O[C@@H]2COP([O-])(=S)O[C@H]2[C@H]1O.[Na+]` (stereo partly shown) [Sp-8-pCPT-cAMPS, reference compound], the “HPLC Area %” value was 100% in data set [2] (Time 0.00 h); 81.7% in data set [2] (Time 0.50 h); 57.47% in data set [2] (Time 1.00 h); 45.71% in data set [2] (Time 1.50 h, RT); “completely vanished” in data set [2] (Time 18.00 h); 0% in data set [2] (Time 18.00 h, listed as Sp-8-pCPT-CAMPS). Moreover, the degraded entry in data set [2] (after 1.5 hours at RT) is “more than 50%”.

`B[PH]1(O)OC[C@H]2O[C@@H](n3c(Sc4ccc(Cl)cc4)nc4c(N)ncnc43)C(OC)[C@@H]2O1` (stereo partly drawn) [Rp-8-pCPT-2′-O-Me-cAMPB, 8-(4-Chlorophenylthio)-2′-O-methyladenosine-3′,5′-cyclic boranophosphate, Rp-isomer]: in data set [3], the “peak area, % of the original area” value is 50%.

With `CO[C@H]1C2OP(O)(=S)OC[C@H]2O[C@H]1n1c(Sc2ccc(Cl)cc2)nc2c(N)ncnc21` (stereo partly shown) [Sp-8-pCPT-2′-O-Me-cAMPS, reference compound], in data set [3], the “peak area, % of the original area” value was “completely degraded”.

For the compound `Nc1ccn([C@@H]2O[C@@H]3COP(O)(=S)O[C@H]3[C@H]2O)c(=O)n1` (single isomer, unassigned) [Sp-cCMPS, cytidine-3′,5′-cyclic phosphorothioate, Sp-isomer, reference compound], in data set [4], the “oxidation by peroxide” value is “rapidly oxidized”. The “HPLC Area %” value in data set [4] (Time 0 min) is on record as 100%; in data set [4] (Time 10 min), 94%; in data set [4] (Time 20 min), 85%; in data set [4] (Time 34 min), 69%; in data set [4] (Time 65 min), 46%; in data set [4] (Time 81 min), 23%. Also, the “HPLC Area %” value in data set [4] (Time 92 min) came to 14%; in data set [4] (Time 98 min), 13%.

On to `B[PH]1(O)OC[C@H]2O[C@@H](n3c(Sc4ccc(Cl)cc4)nc4c(N)ncnc43)C(O)[C@@H]2O1` (stereo partly drawn) [Rp-8-pCPT-cAMPB, 8-(4-Chlorophenylthio)adenosine-3′,5′-cyclic boranophosphate, Rp-isomer], for which the “HPLC Area %” value is 100% in data set [2] (Time 0.00 h); 87.51% in data set [2] (Time 0.50 h); 82.89% in data set [2] (Time 1.00 h); 79% and 79.25% in data set [2] (Time 1.50 h, RT); 30% and 29.56% in data set [2] (Time 18.00 h).

Consider “2′-O-Methyladenosine-3′,5′-cyclic boranophosphate, Sp-isomer [Sp-2′-O-Me-cAMPB]”, for which the “effect on protein kinase A type I alpha holoenzyme” value in data set [5] was “neither Rp- nor Sp-2′-O-Me-cAMPB did modulate the kinase in any way”.

Regarding `Nc1ncnc2c1nc(Br)n2C1OC2COP(O)(=S)OC2C1O` (stereo not shown) [Rp-8-Br-cAMPS, Rp-8-bromoadenosine-3′,5′-cyclic phosphorothioate, reference compound], the “HPLC signal after oxidation” value in data set [6] is “completely vanished”.

In the case of `Nc1ncnc2c1ncn2[C@@H]1O[C@@H]2COP(=O)(O)O[C@H]2[C@H]1O` [cAMP, cyclic adenosine-3′,5′-monophosphate, reference compound], in data set [7], the half-life came out at 5 min.

On to `B[PH]1(O)OC[C@H]2O[C@@H](n3ccc(N)nc3=O)C(O)[C@@H]2O1` (stereo partly drawn) [Rp-cCMPB, Cytidine-3′,5′-cyclic boranophosphate, Rp-isomer], for which the “oxidation by peroxide” value in data set [4] is reported as “considerably higher resistance”. Also, the “HPLC Area %” value in data set [4] (Time 0 min) is 100%; in data set [4] (Time 10 min), 99%; in data set [4] (Time 20 min), 98%; in data set [4] (Time 34 min), 96%; in data set [4] (Time 65 min), 91%; in data set [4] (Time 81 min), 84%. The “HPLC Area %” value came out at 78% in data set [4] (Time 92 min) and 79% in data set [4] (Time 98 min).

As to `COC1C2OP(O)(=S)OCC2OC1n1cnc2c(N)ncnc21` (stereo not shown) [Sp-2′-O-Me-cAMPS, reference compound], the “half life of degradation” value in data set [8] came out at 1800 min.
